From PubChem BioAssay AID1259407 (Chemical Carcinogenesis Research Information System (CCRIS), 2018)
The source made the active and inactive calls. The rule behind the calls is not given here.

Tested on: CCRIS mutagenicity, Ames/micronucleus/aberration tests
Assay: CCRIS mutagenicity studies
[1] = Test System: AMES SALMONELLA TYPHIMURIUM, Strain/Indicator: TA97, Metabolic Activation: NONE, Method: PREINCUBATION
[2] = Test System: AMES SALMONELLA TYPHIMURIUM, Strain/Indicator: TA98, Metabolic Activation: NONE, Method: PREINCUBATION
[3] = Test System: AMES SALMONELLA TYPHIMURIUM, Strain/Indicator: TA100, Metabolic Activation: NONE, Method: PREINCUBATION
[4] = Test System: AMES SALMONELLA TYPHIMURIUM, Strain/Indicator: TA100, Metabolic Activation: NONE, Method: STANDARD PLATE
[5] = Test System: UDS RAT HEPATOCYTES, Strain/Indicator: THY INCORP, Metabolic Activation: NONE, Method: AUTORADIOGRAPHY

Compound: CCCCOCCOCCO
- mutagenic call (Test System: AMES SALMONELLA TYPHIMURIUM, Strain/Indicator: TA97, Metabolic Activation: HAMSTER, LIVER, S-9, AROCLOR 1254 (10 OR 30%), Method: PREINCUBATION): inactive; negative
- mutagenic call [1]: inactive; negative
- mutagenic call (Test System: AMES SALMONELLA TYPHIMURIUM, Strain/Indicator: TA97, Metabolic Activation: RAT, LIVER, S-9, AROCLOR 1254 (10 OR 30%), Method: PREINCUBATION): inactive; negative
- mutagenic call (Test System: AMES SALMONELLA TYPHIMURIUM, Strain/Indicator: TA98, Metabolic Activation: HAMSTER, LIVER, S-9, AROCLOR 1254 (10 OR 30%), Method: PREINCUBATION): inactive; negative
- mutagenic call [2]: inactive; negative
- mutagenic call (Test System: AMES SALMONELLA TYPHIMURIUM, Strain/Indicator: TA98, Metabolic Activation: NONE, Method: STANDARD PLATE): inactive; negative
- mutagenic call (Test System: AMES SALMONELLA TYPHIMURIUM, Strain/Indicator: TA98, Metabolic Activation: RAT, LIVER, S-9, AROCLOR 1254 (10 OR 30%), Method: PREINCUBATION): inactive; negative
- mutagenic call (Test System: AMES SALMONELLA TYPHIMURIUM, Strain/Indicator: TA98, Metabolic Activation: RAT, LIVER, S-9, AROCLOR 1254, Method: STANDARD PLATE): inactive; negative
- mutagenic call (Test System: AMES SALMONELLA TYPHIMURIUM, Strain/Indicator: TA100, Metabolic Activation: HAMSTER, LIVER, S-9, AROCLOR 1254 (10 OR 30%), Method: PREINCUBATION): inactive; negative
- mutagenic call [3]: inactive; negative
- mutagenic call [4]: inactive; negative
- mutagenic call (Test System: AMES SALMONELLA TYPHIMURIUM, Strain/Indicator: TA100, Metabolic Activation: RAT, LIVER, S-9, AROCLOR 1254 (10 OR 30%), Method: PREINCUBATION): inactive; negative
- mutagenic call (Test System: AMES SALMONELLA TYPHIMURIUM, Strain/Indicator: TA100, Metabolic Activation: RAT, LIVER, S-9, AROCLOR 1254, Method: STANDARD PLATE): inactive; negative
- mutagenic call (Test System: AMES SALMONELLA TYPHIMURIUM, Strain/Indicator: TA1535, Metabolic Activation: HAMSTER, LIVER, S-9, AROCLOR 1254 (10 OR 30%), Method: PREINCUBATION): inactive; negative
- mutagenic call (Test System: AMES SALMONELLA TYPHIMURIUM, Strain/Indicator: TA1535, Metabolic Activation: NONE, Method: PREINCUBATION): inactive; negative
- mutagenic call (Test System: AMES SALMONELLA TYPHIMURIUM, Strain/Indicator: TA1535, Metabolic Activation: NONE, Method: STANDARD PLATE): inactive; negative
- mutagenic call (Test System: AMES SALMONELLA TYPHIMURIUM, Strain/Indicator: TA1535, Metabolic Activation: RAT, LIVER, S-9, AROCLOR 1254 (10 OR 30%), Method: PREINCUBATION): inactive; negative
- mutagenic call (Test System: AMES SALMONELLA TYPHIMURIUM, Strain/Indicator: TA1535, Metabolic Activation: RAT, LIVER, S-9, AROCLOR 1254, Method: STANDARD PLATE): inactive; negative
- mutagenic call (Test System: AMES SALMONELLA TYPHIMURIUM, Strain/Indicator: TA1537, Metabolic Activation: NONE, Method: STANDARD PLATE): inactive; negative
- mutagenic call (Test System: AMES SALMONELLA TYPHIMURIUM, Strain/Indicator: TA1537, Metabolic Activation: RAT, LIVER, S-9, AROCLOR 1254, Method: STANDARD PLATE): inactive; negative
- mutagenic call (Test System: AMES SALMONELLA TYPHIMURIUM, Strain/Indicator: TA1538, Metabolic Activation: NONE, Method: STANDARD PLATE): inactive; negative
- mutagenic call (Test System: AMES SALMONELLA TYPHIMURIUM, Strain/Indicator: TA1538, Metabolic Activation: RAT, LIVER, S-9, AROCLOR 1254, Method: STANDARD PLATE): inactive; negative
- mutagenic call (Test System: CHINESE HAMSTER OVARY, Strain/Indicator: CHO-K1-BH4 (HGPRT)/6-THIOGUANINE, Metabolic Activation: NONE): inactive; negative
- mutagenic call (Test System: CHINESE HAMSTER OVARY, Strain/Indicator: CHO-K1-BH4 (HGPRT)/THIOGUANINE, Metabolic Activation: RAT, LIVER, S-9, AROCLOR 1254): inactive; negative
- mutagenic call (Test System: MOUSE LYMPHOMA, Strain/Indicator: L5178Y (TK+/TK-), Metabolic Activation: NONE, Method: SUSPENSION/PLATE): active; positive
- mutagenic call (Test System: MOUSE LYMPHOMA, Strain/Indicator: L5178Y (TK+/TK-), Metabolic Activation: RAT, LIVER, S-9, AROCLOR 1254, Method: SUSPENSION/PLATE): inactive; negative
- mutagenic call [5]: inactive; negative

Compound: C[C@@](Cc1ccc(O)c(O)c1)(NN)C(=O)O
- mutagenic call [4]: active; positive
- mutagenic call (Test System: AMES SALMONELLA TYPHIMURIUM, Strain/Indicator: TA100, Metabolic Activation: RAT, LIVER, S-9, PHENOBARBITAL, Method: STANDARD PLATE): active; positive
- mutagenic call [5]: inactive; negative

Compound: O=CNc1ccc(Oc2c(Cl)cc(Cl)cc2Cl)cc1
- mutagenic call [4]: inactive; negative
- mutagenic call (Test System: AMES SALMONELLA TYPHIMURIUM, Strain/Indicator: TA100, Metabolic Activation: RAT, LIVER, S-9, KANECLOR 500, Method: STANDARD PLATE): active; positive

Compound: O[C@@H]1[C@H]2O[C@H]2c2c(ccc3c2ccc2ccccc23)[C@H]1O
- mutagenic call [1]: active; positive
- mutagenic call [2]: active; positive
- mutagenic call [3]: active; positive
- mutagenic call (Test System: AMES SALMONELLA TYPHIMURIUM, Strain/Indicator: TA104, Metabolic Activation: NONE, Method: PREINCUBATION): active; positive
- mutagenic call (Test System: CHINESE HAMSTER V-79, Strain/Indicator: V-79/6-THIOGUANINE, Metabolic Activation: NONE, Method: STANDARD PLATE): active; positive

Compound: CCC1(CC)C(=O)NC(=O)NC1=O
- mutagenic call (End Point: IN VITRO MICRONUCLEUS, Test System: CHL/IU CELLS, Metabolic Activation: NONE): active; positive
